Measurements taken from patent US20260183274A1, “PDK1 REGULATORY COMPOUND AND COMPOSITION CONTAINING THE SAME” (PROVIBIO CO., LTD., priority 2024, published 2026).

What was measured:
[1] = system: Human Kidney Cancer cell line, ACHN; test: Relative cell viability CCK-8, ACHN; type: cell-based; settings: 48 hours
Protocol: Similarly, human-derived cervical cancer cell line HeLa and renal cancer cell line ACHN, obtained from the Korean Cell Bank, were cultured in DMEM medium containing 10% FBS, 100 U/mL penicillin, and 100 μg/mL streptomycin.
(§1) Following stabilization, the cells were harvested using Trypsin-EDTA treatment, centrifuged at 1,200 rpm for 3 minutes, the supernatant was removed, and the cells were resuspended in the same medium. They were then seeded into a 96-well plate (Costar 96-well cell culture plate, Corning) at 100 μL per well, and the conditions were adjusted as indicated in Table 5.
(§2) The cells were cultured in a 5% CO2 incubator at 37° C. for 24 hours, and after stabilization of the cells, each plate was washed with 200 μL of PBS per well and treated with 50 μL of culture medium per well.
The compounds according to the present invention or the control group (DMSO) were added at concentrations of 0, 10, 30, and 50 μM in 50 μL aliquots to the plates, and the plates were cultured at 37° C. in a 5% CO2 incubator for 48 hours.
(§3) After that, 10 μL of CCK-8 was added to each well, and the plate was incubated again at 37° C. in a 5% CO2 incubator for 2 hours.
(§4) In other words, when the survival rate of untreated cells (DMSO) is set at 100%, the relative cell survival rate in each group treated with the drug at different concentrations is indicated.

[2] = system: Human Gastric cancer cell, SNU-719; test: Relative cell viability CCK-8, SNU-719; type: cell-based; settings: 48 hours
Protocol: (§5) Human-derived breast cancer cell line MCF-7, human-derived lung cancer cell line A549, human-derived colorectal cancer cell line HCT-116, human pancreatic cancer cell line AsPC-1, glioblastoma cell line A172, and melanoma cell line Malme-3M were obtained from the Korean Cell Bank. gastric cancer cell line SNU-719, and bladder cancer cell line T24 were cultured in RPMI-1640 medium containing 10% FBS.
as §1, §2, §3, §4

[3] = system: Balb/c mice with induced pulmonary fibrosis; test: Bleomycin-induced pulmonary fibrosis animal model; type: in vivo, mouse; settings: vs BLM-treated group; for Collagen deposition (Masson's trichrome, Sirius red): FIG. 42; for Expression of α-SMA in lung tissue (IHC): FIG. 43
Source text: To evaluate the therapeutic efficacy of the compound according to the present invention against pulmonary fibrosis, an animal model of pulmonary fibrosis induced by bleomycin intratracheal administration was established.
For this purpose, 8-week-old male Balb/c mice were subjected to general anesthesia using an inhalation anesthetic (2-3% isoflurane in oxygen), followed by disinfection of the neck region, skin incision, and exposure of the trachea.
Bleomycin (Sigma-Aldrich, USA) was directly administered into the trachea at a concentration of 5 mg/kg in a solution of 100 μL.
Two days prior to Bleomycin administration, the compound of the present invention or the comparative drug was administered intraperitoneally at the specified concentration and dose, and the administration was continued once daily for a total of 14 days.
The experimental groups included Normal, Bleomycin alone (BLM), and BLM plus the compound of the present invention (BLM+GO88, 0.2 mg/kg).
Ten days later, the mice were euthanized humanely using carbon dioxide gas, the trachea was incised, and PBS was injected into the trachea to remove blood from the lungs.
The lung tissue washed with PBS was excised, fixed in 4% paraformaldehyde solution for 24 hours, and then paraffin blocks and tissue sections were prepared. The prepared sections were subjected to pathological analysis using H&E, Masson's trichrome, and Sirius red staining.
Additionally, immunohistochemical (IHC) staining was performed for α-SMA (α-smooth muscle actin), an indicator of lung fibroblast activation.

[4] = system: Human Pancreas Adenocarcinoma cell line, AsPC-1; test: Relative cell viability CCK-8, AsPC-1; type: cell-based; settings: 48 hours; for viability at 1 µM: ASPC1, 1 μM; for viability at 10 µM: ASPC1, 10 μM; for viability at 30 µM: ASPC1, 30 μM; for viability at 50 µM: ASPC1, 50 μM
Protocol: as §5, §1, §2, §3, §4

[5] = system: Human multiple myeloma, KMS34; test: Relative cell viability, KMS34; type: cell-based; settings: KMS34 cells, 1 μM, relative to untreated cells
Protocol: as §3, §4

[6] = system: NHDF (Normal Human Dermal Fibroblast) cells; test: Doxorubicin/IGF-1 induced aging of NHDF cells (SA-β-gal, Ki-67 FACS); type: cell-based; settings: 0.01, 1 μM; Doxorubicin 100 ng/ml + IGF-1 100 ng/ml, 7 days; FIG. 39
Protocol: To confirm the anti-aging and rejuvenating effects of the compound GO15F of the present invention, a NHDF (Normal Human Dermal Fibroblast, Promocell) cell model was established by inducing aging with doxorubicin (Doxorubicin), and β-galactosidase activity and Ki-67 expression were analyzed in the cells. First, NHDF cells were seeded at 1×10^4 cells per well in a 12-well plate and stabilized for 24 hours. […] After pre-incubation, the medium was removed, and the cells were cultured for 7 days in medium containing Doxorubicin (100 ng/ml) and IGF-1 (100 ng/ml) with GO15F. During this process, the medium was replaced with fresh medium every 2 days. The cultured cells were washed with PBS, fixed with 1× fixation buffer for 15 minutes, washed again with PBS, and then 300 μL of 1× working SA-β-gal buffer was added to each well. The cells were incubated at 37° C. for 24 hours. After the reaction was terminated, the cells were washed with PBS, and the […] of β-gal-positive cells stained blue was observed and photographed using a light microscope. Additionally, to investigate the effect of the compound (GO15F) of the present invention on proliferation activity in aging-induced NHDF (Normal Human Dermal Fibroblast) cells, Ki-67 expression was measured via FACS analysis. First, NHDF cells were seeded at 1×10^4 cells per well in a 12-well plate and stabilized for 24 hours. […]

Q: Which results are given for `Nc1ncccc1C(=O)NCCCCCCCCCCCCN1CCNCC1` [Compound 5, 2-Amino-N-(12-(piperazin-1-yl)dodecyl)-nicotinamide]?
A: viability at 1 µM [1]: 29.5%; viability at 10 µM [1]: 30%; viability at 30 µM [1]: 29.2%; viability at 50 µM [1]: 28.3%

Q: For `Nc1ncccc1C(=O)NCCCCCCCCCCCCN1CCNCC1` [Compound 14, 2-Amino-N-(12-(piperazin-1-yl)dodecyl)nicotinamide], which viability at 1 µM ([2]; 1 μM) is on record?
A: Its viability at 1 µM is 49.9%.

Q: What about the viability at 10 µM ([2]; 10 μM) of the same compound?
A: The viability at 10 µM was 47.8%.

Q: What about the viability at 30 µM ([2]; 30 μM) of the same compound?
A: Its viability at 30 µM is 44.4%.

Q: What about the viability at 50 µM ([2]; 50 μM) of the same compound?
A: Its viability at 50 µM is 45.5%.

Q: And the “Collagen deposition (Masson's trichrome, Sirius red)” value [3]?
A: Its value is “significantly reduced”.

Q: And the “Expression of α-SMA in lung tissue (IHC)” value [3]?
A: The value was “significantly suppressed”.

Q: And the viability at 1 µM [4]?
A: The viability at 1 µM was 43.1%.

Q: And the viability at 10 µM [4]?
A: The viability at 10 µM was 45.4%.

Q: What about the viability at 30 µM [4] of the same compound?
A: The viability at 30 µM was 36.8%.

Q: What about the viability at 50 µM [4] of the same compound?
A: Its viability at 50 µM is 30.5%.

Q: For `CC1(C)CN(CCCCCCCCCCCCC(=O)Nc2nc(N)c3[nH]cnc3n2)CCO1` [Compound 11, 12-[4-(2,2-dimethylmorpholin-4-yl)]dodecyl-N-(6-aminopurine-2-yl) carboxamide], which “Relative cell viability (%)” value [5] is on record?
A: The value was 26.19%.

Q: Which “Number of β-gal-positive cells (SA-β-gal)” value [6] does the source give for `Nc1ncccc1C(=O)NCCCCCCCCCCCCF` [Compound 57, 2-Amino-N-(12-fluoro-dodecyl)-nicotinamide] here?
A: Its value is “the number of β-gal-positive cells decreased”.

Q: What about the “Collagen deposition (Masson's trichrome, Sirius red)” value [3] of the same compound?
A: The value was “significantly reduced”.

Q: And the “Expression of α-SMA in lung tissue (IHC)” value [3]?
A: The value was “significantly suppressed”.

Q: Which viability at 1 µM [4] does the source give for `Nc1nc(NC(=O)CCCCCCCCCCCCN2CCN(CCO)CC2)nc2nc[nH]c12` [Compound 15, 12-[4-(2-hydroxyethyl)piperazin-1-yl]dodecyl-N-(6-aminopurine-2-yl) carboxamide] here?
A: Its viability at 1 µM is 40.9%.

Q: What about the viability at 10 µM [4] of the same compound?
A: Its viability at 10 µM is 42.8%.

Q: And the viability at 30 µM [4]?
A: Its viability at 30 µM is 44.1%.

Q: And the viability at 50 µM [4]?
A: Its viability at 50 µM is 41.5%.

Q: What about the viability at 1 µM [1] of the same compound?
A: Its viability at 1 µM is 31.7%.

Q: And the viability at 10 µM [1]?
A: The viability at 10 µM was 30%.

Q: And the viability at 30 µM [1]?
A: Its viability at 30 µM is 30.6%.

Q: And the viability at 50 µM [1]?
A: Its viability at 50 µM is 30.3%.
